Experimental data as given in patent EP0070049A1, “Derivative of acetylsalicylic acid having an analgetic, antipyretic, antiphlogistic and bronchosecretolytic activity” (UNIONE CHIMICA MEDICAMENTI- DIFME-S.p.A., priority 1981, dated 1983).

Columns and labels:
[1] = tested on: oedème induit par carraghénine injectée dans la patte de rats; assay: Carrageenan-induced rat paw oedema (antiphlogistic activity, Winter et al); format: in vivo; details: voie orale; for Volume de l'oedème - ml ± d.s. après 3 heures: 3 heures après le traitement oedémigène; for Volume de l'oedème - ml ± d.s. après 6 heures: 6 heures après le traitement oedémigène
Text: L'activité antiphlogistique de l'acétylsalicylate de 2(o-méthoxy-phénoxy) éthanol a été évaluée en comparaison avec celle de l'acide acétylsalicylique sur la base de la variation de volume de l'oedème induit par carraghénine injectée dans la patte de rats, suivant la technique décrite par Winter et al (Proc. Soc. Exp. Biol. Med., volume III, page 544, 1962). Les résultats de l'élaboration des épreuves sont indiqués dans le Tableau 1, dans lequel le volume de l'oedème est indiqué en millilitres z la déviation standard, et il a été mesuré 3, 4,5 et 6 heures après le traitement oedémigène; la dose de substance est indiquée en milligrammes de substance administrée par voie orale pour chaque kilogramme de poids corporel des rats; les valeurs marquées par * correspondent à une probabilité d'erreur p < 0,05, les valeurs marquées correspondent à une probabilité d'erreur p < 0,01, calculées sur les valeurs des contrôles, et les valeurs indiquées entre parenthèses indiquent l'inhibition en pour-cent calculée par rapport aux contrôles.

[2] = tested on: température corporelle, augmentée par l'injection intraveineuse de nucléinate de sodium dans le lapin; assay: Antipyretic activity: rise in body temperature induced by intravenous sodium nucleinate; format: in vivo; details: for Augmentation temperature corporelle - °C ± d.s. après 1 heure: 1 heure après l'administration; for Augmentation temperature corporelle - °C ± d.s. après 2 heures: 2 heures après l'administration; for Augmentation temperature corporelle - °C ± d.s. après 3 heures: 3 heures après l'administration; for Augmentation temperature corporelle - °C ± d.s. après 4 heures: 4 heures après l'administration
Text: L'activité antipyrétique de l'acétylsalicylate de 2(o-méthoxy-phénoxy)éthanol a été evaluée en comparaison avec celle de l'acide acétylsalicylique suivant la méthode, universellement employée, de la mesure de la variation de la température corporelle, augmentée par 1' injection intraveineuse de nucléinate de sodium dans le lapin. Les résultats de l'élaboration statistique des épreuves sont indiqués dans le suivant Tableau 2, dans lequel l'augmentation de la température corporelle est indiquée en °C ± la déviation standard, et a été mesurée 1, 2, 3 et 4 heures après l'administration; pour les autres valeurs est valable ce qui a été spécifié en relation avec le Tableau 1.

[3] = tested on: convulsions abdominales (writhings) induites dans le souris par une injection intrapéritonéale d'acide acétique; assay: Acetic acid writhing test (analgesic activity, Koster and Anderson); format: in vivo; details: souris, 60 minutes après l'administration; for Frequence writhings: ± déviation standard
Text: L'activité analgésique de l'acétylsalicylate de 2(o-méthoxy-phénoxy)éthanol a été évaluée en comparaison avec celle de l'acide acétylsalicylique sur la base de la fréquence des convulsions abdominales (writhings) induites dans le souris par une injection intrapéritonéale d'acide acétique, suivant la technique décrite par Koster et Anderson (Fed. Proc., volume 18, page 412, 1959). Les résultats de l'élaboration statistique des épreuves sont indiqués dans le suivant Tableau 3, dans lequel la fréquence des convulsions est indiquée comme nombre de convulsions par minute ± la déviation standard, et a été mesurée 60 minutes après l'administration; pour les autres valeurs est valable ce qui a été spécifié en relation avec le Tableau 1.

[4] = tested on: arbre bronchial de rats Wistar; assay: Bronchosecretolytic activity: pulmonary excretion of fluorescein (Mawatari); format: in vivo; details: rats Wistar, 200 mg/Kg
Text: L'activité bronchosécrétolytique de l'acétylsalicylate de 2(o-méthoxy-phénoxy)éthanol a été évaluée en comparaison avec celle du gaïacoléthanol, sur la base de la mesure des variations de la quantité d'indicateur (fluorescéine) trouvée dans l'arbre bronchial de rats Wistar, recueillie au moyen d'un système de lavage standardisé, après injection parentérale de l'indicateur, et mesurée au moyen d'un spectrofluorométre, suivant la méthode décrite par H.Mawatari ("Expérimental studies on the expectorant action of several drugs", Kagoshima Daigakeu Igakeu Zasshi, volume 27, page 561, 1976). Les résultats de l'élaboration statistique des épreuves sont recueillis dans le suivant tableau 4,dans lequel l' excrétion pulmonaire de fluorescéine est exprimée en microgrammes ± la déviation standard, soit dans la quantité totale trouvée, soit dans la quantité pour-cent rapportée à 100 g de poids corporel des rats. Entre parenthèses sont indiquées les valeurs de l'augmentation pour-cent par rapport aux contrôles. Pour les autres valeurs est valable ce qui été précisé en relation au Tableau 1.

rats = details: rat, in vivo, 915 mg/kg
Text: La toxicité subaiguë de l'acétylsalicylate de 2(o-méthoxy-phénoxy)éthanol a été évaluée en comparaison avec celle de l'acide acétylsalicylique en administrant à des rats, par voie orale, des doses journalières de substance pour 10 jours, et en relevant le nombre des animaux morts, la diminution moyenne de poids des animaux traités et l'incidence des lésions gastriques relevées, distinguées en simple hyperémie, hyperémie accompagnée par hémorragie et hémorragie accompagnée par ulcérations. Les résultats des épreuves sont indiqués dans le Tableau 5, dans lequel la dose de substance administrée est exprimée en mg de substance par kg de poids corporel et par jour, et la diminution moyenne de poids corporel à la fin du traitement est exprimée en grammes.

[5] = Solubility (characteristics of the substance); format: physicochemical

## COc1ccccc1OCCOC(=O)c1ccccc1OC(C)=O [acétylsalicylate de 2(o-méthoxy-phénoxy)éthanol]
[1]; 100 mg/Kg
  inhibition en pour-cent calculée par rapport aux contrôles, après 3 heures: 44,0 pour-cent
  Volume de l'oedème - ml ± d.s. après 3 heures: 0,380 ± 0,18 ml
  inhibition en pour-cent calculée par rapport aux contrôles, après 6 heures: 39,0 pour-cent
  Volume de l'oedème - ml ± d.s. après 6 heures: 0,291 ± 0,13 ml
[1]; 100 mg/Kg, 4,5 heures
  inhibition en pour-cent calculée par rapport aux contrôles, après 4,5 heures: 45,0 pour-cent
[1]; 100 mg/Kg, 4,5 heures après le traitement oedémigène
  Volume de l'oedème - ml ± d.s. après 4,5 heures: 0,333 ± 0,17 ml
[1]; 200 mg/Kg
  inhibition en pour-cent calculée par rapport aux contrôles, après 3 heures: 70,0 pour-cent
  Volume de l'oedème - ml ± d.s. après 3 heures: 0,20 + 0,1 ml
  inhibition en pour-cent calculée par rapport aux contrôles, après 6 heures: 65,0 pour-cent
  Volume de l'oedème - ml ± d.s. après 6 heures: 0,16 + 0,1 ml
[1]; 200 mg/Kg, 4,5 heures
  inhibition en pour-cent calculée par rapport aux contrôles, après 4,5 heures: 67,0 pour-cent
[1]; 200 mg/Kg, 4,5 heures après le traitement oedémigène
  Volume de l'oedème - ml ± d.s. après 4,5 heures: 0,20 + 0,11 ml
[2]; 100 mg/Kg
  Augmentation temperature corporelle - °C ± d.s. après 1 heure: 1,15 ± 0,19 °C
  inhibition en pour-cent calculée par rapport aux contrôles, après 2 heures: 22 pour-cent
  Augmentation temperature corporelle - °C ± d.s. après 2 heures: 1,13 ± 0,2 °C
  inhibition en pour-cent calculée par rapport aux contrôles, après 3 heures: 43 pour-cent
  Augmentation temperature corporelle - °C ± d.s. après 3 heures: 0,94 ± 0,11 °C
  inhibition en pour-cent calculée par rapport aux contrôles, après 4 heures: 56 pour-cent
  Augmentation temperature corporelle - °C ± d.s. après 4 heures: 0,33 ± 0,07 °C
[2]; 200 mg/Kg
  Augmentation temperature corporelle - °C ± d.s. après 1 heure: 1,1 ± 0,2 °C
  inhibition en pour-cent calculée par rapport aux contrôles, après 2 heures: 24 pour-cent
  Augmentation temperature corporelle - °C ± d.s. après 2 heures: 1,1 ± 0,17 °C
  inhibition en pour-cent calculée par rapport aux contrôles, après 3 heures: 47 pour-cent
  Augmentation temperature corporelle - °C ± d.s. après 3 heures: 0,87 ± 0,15 °C
  inhibition en pour-cent calculée par rapport aux contrôles, après 4 heures: 62 pour-cent
  Augmentation temperature corporelle - °C ± d.s. après 4 heures: 0,28 ± 0,05 °C
[3]; 1 h, 100 mg/Kg, read-out: % inhibition
  inhibition at 100 mg/kg: 33%
[3]; 1 h, 200 mg/Kg, read-out: % inhibition
  inhibition at 200 mg/kg: 49%
[3]; 100 mg/Kg
  Frequence writhings: **19,5 ± 5,4 convulsions par minute
[3]; 200 mg/Kg
  Frequence writhings: **14,88 ± 6,8 convulsions par minute
[4]
  augmentation pour-cent par rapport aux contrôles (excrétion pulmonaire de fluorescéine, quantité totale): +90,8 pour-cent
[4]; rapportée à 100 g de poids corporel, ± déviation standard
  Excrétion pulmonaire de fluorescéine Quantité pour-cent µg/100 g: 0,230 ± 0,042 µg/100 g
[4]; ± déviation standard
  Excrétion pulmonaire de fluorescéine Quantité totale µg: 0,481 ± 0,068 µg
rats
  Lésions gastriques Hyperémie: 4
  Lésions gastriques Hyperémie + hémorragie: 2
  Lésions gastriques Hémorragie + ulcérations: =
  Nombre animaux morts: 3
  Δ poids moyenne: -10 grammes
[5]; benzène, chloroforme, diméthylcétone, éthanol, éther éthylique, isopropanol et autres solvants organiques
  solubilité en solvants organiques: soluble
[5]; eau
  solubilité dans l'eau: practiquement insoluble
